In brackets after ≈: the same amount, converted by molar mass. Read-outs that look alike come from different tables or passages of the source.
What was measured:
[1] = system: ESBL Klebsiella pneumoniae isolates; assay: MIC against isolates analyzed in time-kill experiments; format: cell-based
[2] = system: E. coli (ATCC 25922); assay: One-compartment in vitro chemostat infection model, ceftibuten alone; format: cell-based
Method: Becton, Dickinson and Company, Sparks, Md.) and placed in a water bath at 35° C. Magnetic stirrers were used for consistent mixing of the contents during the experiment. […] For each drug exposure/bacteria combination, the experiment was conducted over 24 hours and consisted of a drug free control and two experimental (i.e., drug containing) replicate models. Data from the two replicate models were treated as independent exposures given there is some expected variability in obtained concentrations due to small inconsistencies in volume flows between the chemostat models. A peristaltic pump (Masterflex L/S model 7524-40; Cole-Parmer, Vernon Hills, Ill.) was set to infuse CAMHB into the models at a desired elimination rate for the drug. Broth samples were collected from the model throughout the experiment to determine free drug concentrations and bacterial density. Antibiotic carryover was minimized by serial dilution of samples. Bacterial density was counted after 18-24 hours incubation at 37° C. […] Time-kill curves were constructed by plotting the log10 CFU/mL against time. […] The control models served to define 0% fT>MIC results. […] Drug concentrations were assessed at the peak and trough of each administered dose to achieve the desired exposure and at least one other midpoint concentration for each interval. […] The change in log10 CFU/ml at 24 hours was the primary endpoint for exposure response relationship. […] Mountain View, Calif.).

[3] = system: Yersinia pestis Colorado92; assay: microbe, parasite or virus in culture; format: cell-based
[4] = system: Enterobacter cloacae isolates; assay: MIC of cephalosporins alone or with clavulanate/tazobactam; format: cell-based; settings: clavulanate 2:1, tazobactam 4 μg/mL
[5] = system: CTX-M-15 Strain; assay: MIC of cephalosporins without and with CLV (Table 16); format: cell-based
[6] = system: Burkholderia mallei China7; assay: microbe, parasite or virus in culture; format: cell-based
[7] = system: Escherichia coli isolates; assay: MIC of cephalosporins alone or with clavulanate/tazobactam; format: cell-based; settings: clavulanate 2:1, tazobactam 4 μg/mL
[8] = system: Citrobacter freundii isolates; assay: as above; format: cell-based; settings: clavulanate 2:1, tazobactam 4 μg/mL
[9] = system: ESBL Escherichia coli isolates; assay: MIC against isolates analyzed in time-kill experiments; format: cell-based
[10] = system: AECO001; assay: MIC of cephalosporins (Table 16); format: cell-based
[11] = target: T1, CTX-M-15 (Escherichia coli, UniProt Q9EXV5); format: biochemical
[12] = system: ESBL Klebsiella pneumoniae isolates; assay: Killing kinetics (time-kill); format: cell-based; settings: 4X MIC of CTB+CLA
[13] = system: ESBL Escherichia coli isolates; assay: Killing kinetics (time-kill); format: cell-based; settings: 4X MIC of CTB+CLA
[14] = system: Francisella tularensis ShuS4; assay: microbe, parasite or virus in culture; format: cell-based
[15] = system: ESBL-producing Enterobacteriaceae isolates (panel of nineteen); assay: MIC of cephalosporins alone or with clavulanate/tazobactam, whole panel; format: cell-based; settings: cephalosporin alone
[16] = target: T1, CTX-M-15; assay: Competition assay with nitrocefin (IC50); format: biochemical
[17] = clinical; settings: human, in vivo, 400 mg
Method: The twice daily divided dose of study drug was administered approximately 12 hours apart. All subjects randomized to placebo received placebo oral capsules that were identical to study drug capsules and given according to the same dosing schedule and same quantity of capsules as subjects randomized to receive ceftibuten and clavulanate concurrently. All SDs, as well as the first daily dose of the MD period on […] were given while the subject was fasted. […] In addition, blood samples for assessment of trough (pre-dose) concentrations were collected on day 7, day 8, day 9, and alternate days thereafter through study day 17. […] Peak concentration (Cmax), time at which Cmax was observed (Tmax), area under the concentration-time curve to infinity (AUCinf), percent coefficient of variation (% CV), elimination half-life (T1/2), apparent total clearance of the drug from plasma after oral administration (CL/F), and apparent volume of distribution during terminal phase after non-intravenous administration (Vz/F) were determined. […] Similar to above, six subjects were randomized to receive active drug and two were randomized to receive placebo. […] Safety, tolerability and PK were assessed as described above.

[18] = sub-saturating conditions, simulated from measured kinetic constants

T1 sequence (Q9EXV5 entry or part of it): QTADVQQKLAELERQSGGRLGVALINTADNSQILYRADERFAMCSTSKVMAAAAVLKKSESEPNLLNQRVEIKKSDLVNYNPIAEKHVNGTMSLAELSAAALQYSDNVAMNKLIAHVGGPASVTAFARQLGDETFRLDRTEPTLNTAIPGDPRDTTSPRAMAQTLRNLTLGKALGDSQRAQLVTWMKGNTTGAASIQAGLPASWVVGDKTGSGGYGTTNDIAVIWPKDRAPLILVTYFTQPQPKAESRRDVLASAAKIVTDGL

Nc1nc(/C(=C/CC(=O)O)C(=O)N[C@@H]2C(=O)N3C(C(=O)O)=CCS[C@H]23)cs1 [Ceftibuten, ceftibuten]
MIC ([1]; AKP1162 (SHV-12, CTX-M-15)): 32 µg/mL (≈ 78 µM) | MIC ([1]; AKPN1159 (SHV-12)): 4 µg/mL (≈ 9.75 µM) | fT > MIC for 1-log CPU reduction ([2]; 24 hours, Emax model): 58.5% | fT > MIC for 2-log CPU reduction ([2]; 24 hours, Emax model): 66.0% | fT > MIC for Stasis ([2]; 24 hours, Emax model): 53.7% | MIC ([2]; Escherichia coli, ATCC25922): 0.25 µg/mL | MIC [3]: 0.03 µg/mL (≈ 0.0731 µM) | MIC ([4]; AECL1065 (CTX-M-15)): > 64 µg/mL | MIC ([4]; AECL1067 (CTX-M-3)): 32 µg/mL | MIC ([5]; read-out: MIC CTX-M-15 Strain − CLV): 16 µg/mL | MIC CTX-M-15 Strain + CLV ([5]; with CLV): 1 µg/mL | MIC [6]: 1 to 2 µg/mL (≈ 2.44 to 4.87 µM) | MIC ([7]; AECO001 (no ESBL)): 0.5 µg/mL | MIC ([7]; AECO1078 (CTX-M-15)): 32 µg/mL | MIC ([7]; AECO1147 (CTX-M-15)): 4 µg/mL | MIC ([7]; AECO1157 (CTX-M-15, TEM-OSBL)): 8 µg/mL | MIC ([7]; AECO1159 (CTX-M-15)): 16 µg/mL | MIC ([7]; AECO1169 (CTX-M-1, TEM-OSBL)): 1 µg/mL | MIC ([7]; AECO1172 (CTX-M-14)): 2 µg/mL | MIC ([8]; ACFR1034 (CTX-M-15, TEM-OSBL)): > 64 µg/mL | MIC ([8]; ACFR1035 (CTX-M-3, TEM-OSBL)): 16 µg/mL | MIC ([9]; AECO1156 (CTXM-15, TEM-OSBL)): 16 µg/mL (≈ 39 µM) | MIC ([9]; AECO1157 (CTXM-15, TEM-OSBL)): 8 µg/mL (≈ 19.5 µM) | MIC ([9]; AECO1162 (CTX-M-14)): 8 µg/mL (≈ 19.5 µM) | MIC ([9]; AECO1166 (SHV-12)): 2 µg/mL (≈ 4.87 µM) | MIC [10]: 0.5 µg/mL | concentration saturating CTX-M-15 activity ([11]; direct-turnover assay): did not saturate CTX-M-15 activity | Km ([11]; read-out: KM (95% CI), CTX-M-15-mediated hydrolysis): > 100 µM | fold slower degradation by CTX-M-15 than cefixime [11, 18]: about 2.5 fold | fold slower degradation by CTX-M-15 than cefotaxime [11, 18]: ~70 fold | fold slower degradation by CTX-M-15 than cefpodoxime [11, 18]: ~67 fold | Change in Log10 CFU/mL From Inoculum (0 hr) ([12]; AKPN1159, 2 h): 0.65 Log10 CFU/mL | Change in Log10 CFU/mL From Inoculum (0 hr) ([12]; AKPN1159, 4 h): 2.37 Log10 CFU/mL | Change in Log10 CFU/mL From Inoculum (0 hr) ([12]; AKPN1159, 6 h): 3.01 Log10 CFU/mL | Change in Log10 CFU/mL From Inoculum (0 hr) ([12]; AKPN1159, 24 h): 3.71 Log10 CFU/mL | Change in Log10 CFU/mL From Inoculum (0 hr) ([12]; AKPN1162, 2 h): 1.57 Log10 CFU/mL | Change in Log10 CFU/mL From Inoculum (0 hr) ([12]; AKPN1162, 4 h): 2.76 Log10 CFU/mL | Change in Log10 CFU/mL From Inoculum (0 hr) ([12]; AKPN1162, 6 h): 2.96 Log10 CFU/mL | Change in Log10 CFU/mL From Inoculum (0 hr) ([12]; AKPN1162, 24 h): 3.55 Log10 CFU/mL | Change in Log10 CFU/mL From Inoculum (0 hr) ([13]; AECO1156, 2 h): 0.33 Log10 CFU/mL | Change in Log10 CFU/mL From Inoculum (0 hr) ([13]; AECO1156, 4 h): 2.35 Log10 CFU/mL | Change in Log10 CFU/mL From Inoculum (0 hr) ([13]; AECO1156, 6 h): 3.28 Log10 CFU/mL | Change in Log10 CFU/mL From Inoculum (0 hr) ([13]; AECO1156, 24 h): 3.98 Log10 CFU/mL | Change in Log10 CFU/mL From Inoculum (0 hr) ([13]; AECO1157, 2 h): 1.02 Log10 CFU/mL | Change in Log10 CFU/mL From Inoculum (0 hr) ([13]; AECO1157, 4 h): 2.88 Log10 CFU/mL | Change in Log10 CFU/mL From Inoculum (0 hr) ([13]; AECO1157, 6 h): 3.29 Log10 CFU/mL | Change in Log10 CFU/mL From Inoculum (0 hr) ([13]; AECO1157, 24 h): 3.63 Log10 CFU/mL | Change in Log10 CFU/mL From Inoculum (0 hr) ([13]; AECO1162, 2 h): −0.36 Log10 CFU/mL | Change in Log10 CFU/mL From Inoculum (0 hr) ([13]; AECO1162, 4 h): 0.17 Log10 CFU/mL | Change in Log10 CFU/mL From Inoculum (0 hr) ([13]; AECO1162, 6 h): 2.19 Log10 CFU/mL | Change in Log10 CFU/mL From Inoculum (0 hr) ([13]; AECO1162, 24 h): 3.46 Log10 CFU/mL | Change in Log10 CFU/mL From Inoculum (0 hr) ([13]; AECO1166, 2 h): −1.30 Log10 CFU/mL | Change in Log10 CFU/mL From Inoculum (0 hr) ([13]; AECO1166, 4 h): 0.58 Log10 CFU/mL | Change in Log10 CFU/mL From Inoculum (0 hr) ([13]; AECO1166, 6 h): 2.24 Log10 CFU/mL | Change in Log10 CFU/mL From Inoculum (0 hr) ([13]; AECO1166, 24 h): 3.71 Log10 CFU/mL | MIC [14]: 0.25 µg/mL (≈ 0.609 µM) | ESBL-producing isolates with MIC<8 μg/mL ([15]; 19 isolates): 10 of 19 | MICs relative to CLSI/EUCAST MIC breakpoints for the approved dosing regimens ([15]; ESBL-producing Enterobacteriaceae): above the CLSI/EUCAST | IC50 [16]: > 1000 µM | IC50 ([16]; read-out: IC50 (95% CI), competition with nitrocefin): > 1000 µM | geometric mean % CV of exposure (Cmax and AUCinf) [17]: 11-16% | AUC(0-inf) ([17]; po, AUCinf): 93000 ng·h/mL | Cmax ([17]; po, Cmax): 17900 ng/mL | half-life ([17]; po, T½): 3.11 h | Vd/F ([17]; po, Vz/F): 19.3 L

Reference: patent publication US20180015100A1, “COMBINATION PRODUCTS FOR THE TREATMENT OF BACTERIAL INFECTIONS AND METHODS OF PRODUCING OR DOSING OF SAME” (priority 2016, published 2018)
